In article PMC11173529, “Structure–Activity Relationship Studies in a Series of Xanthine Inhibitors of SLACK Potassium Channels” (Molecules, 2024):

Experiments:
Format in all cases: cell-based
hERG = target: T1, hERG (Homo sapiens, UniProt Q12809); experiment: Tl+-flux selectivity panel in HEK-293 cells: hERG; conditions: HEK-293 cells stably expressing hERG, 10 µM test compound, relative to control bepridil, read-out: Percent Inhibition ± SEM
T1 construct: expressed in transfected cells; host or cells: HEK293
T1 sequence (Q12809 whole entry): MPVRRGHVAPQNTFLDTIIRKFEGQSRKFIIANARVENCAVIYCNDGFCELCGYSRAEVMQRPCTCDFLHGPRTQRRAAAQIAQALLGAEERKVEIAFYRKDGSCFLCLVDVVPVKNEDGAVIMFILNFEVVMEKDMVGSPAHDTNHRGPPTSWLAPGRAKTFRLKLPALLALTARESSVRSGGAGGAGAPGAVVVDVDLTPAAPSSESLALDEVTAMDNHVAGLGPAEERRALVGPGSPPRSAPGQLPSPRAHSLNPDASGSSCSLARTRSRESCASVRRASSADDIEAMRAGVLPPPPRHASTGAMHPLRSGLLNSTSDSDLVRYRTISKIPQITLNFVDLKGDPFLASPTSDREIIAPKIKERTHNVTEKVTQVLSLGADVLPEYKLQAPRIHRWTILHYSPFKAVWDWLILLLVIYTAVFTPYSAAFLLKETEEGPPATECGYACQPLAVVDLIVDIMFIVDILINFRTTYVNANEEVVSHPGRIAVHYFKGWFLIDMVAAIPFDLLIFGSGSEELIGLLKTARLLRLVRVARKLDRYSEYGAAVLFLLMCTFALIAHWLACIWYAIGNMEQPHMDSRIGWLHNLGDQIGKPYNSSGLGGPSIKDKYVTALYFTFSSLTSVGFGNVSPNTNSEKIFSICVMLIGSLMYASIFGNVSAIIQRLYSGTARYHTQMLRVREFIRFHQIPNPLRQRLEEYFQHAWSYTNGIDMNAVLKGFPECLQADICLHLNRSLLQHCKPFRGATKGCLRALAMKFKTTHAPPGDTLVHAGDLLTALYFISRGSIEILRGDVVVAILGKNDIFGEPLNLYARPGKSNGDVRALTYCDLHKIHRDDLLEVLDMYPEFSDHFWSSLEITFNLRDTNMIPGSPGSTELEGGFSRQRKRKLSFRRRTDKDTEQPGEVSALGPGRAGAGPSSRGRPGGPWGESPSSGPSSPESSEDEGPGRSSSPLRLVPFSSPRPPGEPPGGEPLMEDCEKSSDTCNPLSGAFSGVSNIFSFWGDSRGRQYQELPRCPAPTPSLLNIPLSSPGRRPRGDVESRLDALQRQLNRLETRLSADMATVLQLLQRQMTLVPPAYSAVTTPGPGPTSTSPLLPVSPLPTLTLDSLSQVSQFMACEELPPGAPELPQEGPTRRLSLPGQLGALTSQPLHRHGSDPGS
Procedure: (§1) With a handful of analogs that offered improved SLACK potency relative to hit compound 8, we next proceeded to investigate the ancillary pharmacology of such compounds, both with respect to other Slo family members as well as versus a spectrum of diverse ion channels (Table 5). Thus, we screened four compounds (32, 48, 70, and 71) at 10 µM in our in-house selectivity panel of Tl^+-flux assays in HEK-293 cells stably expressing the target of interest. […] Some valuable SAR was noted as well. […] Reduction of inhibition at Maxi-K α1/β4 also followed. This SAR will be important to bear in mind for continued optimization within this series. […] Of particular note is the lack of significant hERG activity in this series, as activity versus that counter-target has been an issue with other SLACK inhibitors.
(§2) Stably transfected monoclonal HEK293 cell lines expressing Slick, Maxi-K α1/β3, Maxi-K α1/β4, CaV3.2, GIRK 1/2, KV2.1, KV7.2, NaV1.7, and TASK-1 were generated as previously described. Stably transfected monoclonal HEK293 cell lines expressing hERG were generated as previously described. CHO-K1 cells expressing human Slack and disease-associated human Slack mutations, G288S and A934T, were generated by transfecting a PiggyBac TRE mammalian expression vector (VectorBuilder, Chicago, IL, USA) containing KCNT1. FuGENE 6 (Promega, Madison, WI, USA) transfection reagent and protocol, together with Opti-MEM (Thermo Fisher Scientific, Walkham, MA, USA), were utilized.
(§3) The Tl^+ flux assays were conducted as previously described with modifications optimized for individual cell lines as described below. Following removal of cell culture media, cells were loaded with Tl^+-sensitive dye loading solution containing Thallos-AM (ION Biosciences, San Marcos, TX, USA), 1.25 mM Probenecid, and 0.3% Pluronic F-127 (MilliporeSigma, Burlington, MA, USA), in assay buffer comprised of Hanks Balanced Salt Solution (HBSS) (Thermo Fisher Scientific, Waltham, MA, USA) and 20 mM HEPES (Corning, Corning, NY, USA) at room temperature for one-hour. Dye loading solution was replaced with 20 μL/well of assay buffer prior to assaying. Cell plates were then loaded onto a Panoptic kinetic imaging plate reader (WaveFront Biosciences, Franklin, TN, USA). Data were acquired at 5 Hz (excitation 482 ± 35 nm, emission 536 ± 40 nm) for 10 s, at which time 20 μL/well of test compounds in assay buffer at 2-fold above the desired final concentration was added and allowed to incubate for 120 s. Next, 10 μL/well of Tl^+ stimulus buffer (129 mM Na gluconate, 1.2 mM CaSO4, 1 MgSO4, 1 mM Na2HPO4, 4.17 mM NaHCO3, 5.56 mM glucose, 2.5 mM Tl2SO4, and 10 mM HEPES pH 7.3) was added. Imaging was concluded after an additional 120 s.

KV2.1 = target: T2, KV2.1 (Homo sapiens, UniProt Q14721); experiment: Tl+-flux selectivity panel in HEK-293 cells: KV2.1; conditions: HEK293, 10 µM test compound, relative to control guangxitoxin 1E, read-out: Percent Inhibition ± SEM
T2 construct: expressed in transfected cells; host or cells: HEK293
T2 sequence (Q14721 1-858): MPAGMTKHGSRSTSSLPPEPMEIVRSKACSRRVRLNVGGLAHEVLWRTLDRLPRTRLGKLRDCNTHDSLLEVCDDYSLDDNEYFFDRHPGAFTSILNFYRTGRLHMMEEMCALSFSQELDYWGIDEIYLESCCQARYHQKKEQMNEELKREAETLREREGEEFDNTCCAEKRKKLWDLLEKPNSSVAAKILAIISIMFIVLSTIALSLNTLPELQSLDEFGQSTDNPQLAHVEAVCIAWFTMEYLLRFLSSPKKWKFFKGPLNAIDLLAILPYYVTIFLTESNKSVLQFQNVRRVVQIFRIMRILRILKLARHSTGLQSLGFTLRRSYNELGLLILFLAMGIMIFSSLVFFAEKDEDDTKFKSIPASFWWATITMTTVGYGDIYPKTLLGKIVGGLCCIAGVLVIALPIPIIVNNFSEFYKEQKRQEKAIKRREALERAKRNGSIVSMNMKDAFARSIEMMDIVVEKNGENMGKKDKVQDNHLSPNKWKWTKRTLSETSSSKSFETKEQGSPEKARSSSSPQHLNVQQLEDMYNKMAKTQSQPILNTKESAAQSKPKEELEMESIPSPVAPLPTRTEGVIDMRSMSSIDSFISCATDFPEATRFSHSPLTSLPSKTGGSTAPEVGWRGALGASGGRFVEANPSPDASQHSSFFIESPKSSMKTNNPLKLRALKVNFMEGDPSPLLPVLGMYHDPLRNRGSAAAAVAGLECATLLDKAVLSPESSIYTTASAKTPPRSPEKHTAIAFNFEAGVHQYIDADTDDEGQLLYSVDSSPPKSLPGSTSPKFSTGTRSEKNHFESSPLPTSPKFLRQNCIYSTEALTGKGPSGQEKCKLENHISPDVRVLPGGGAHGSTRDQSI
Procedure: as §1, §2, §3

Maxi-K α1/β3 = target: T3, Maxi-K α1/β3 (Homo sapiens, UniProt Q12791); experiment: Tl+-flux selectivity panel in HEK-293 cells: Maxi-K α1/β3; conditions: HEK293, 10 µM test compound, relative to control paxilline, read-out: Percent Inhibition ± SEM
T3 construct: expressed in transfected cells; host or cells: HEK293
T3 sequence (Q12791 whole entry): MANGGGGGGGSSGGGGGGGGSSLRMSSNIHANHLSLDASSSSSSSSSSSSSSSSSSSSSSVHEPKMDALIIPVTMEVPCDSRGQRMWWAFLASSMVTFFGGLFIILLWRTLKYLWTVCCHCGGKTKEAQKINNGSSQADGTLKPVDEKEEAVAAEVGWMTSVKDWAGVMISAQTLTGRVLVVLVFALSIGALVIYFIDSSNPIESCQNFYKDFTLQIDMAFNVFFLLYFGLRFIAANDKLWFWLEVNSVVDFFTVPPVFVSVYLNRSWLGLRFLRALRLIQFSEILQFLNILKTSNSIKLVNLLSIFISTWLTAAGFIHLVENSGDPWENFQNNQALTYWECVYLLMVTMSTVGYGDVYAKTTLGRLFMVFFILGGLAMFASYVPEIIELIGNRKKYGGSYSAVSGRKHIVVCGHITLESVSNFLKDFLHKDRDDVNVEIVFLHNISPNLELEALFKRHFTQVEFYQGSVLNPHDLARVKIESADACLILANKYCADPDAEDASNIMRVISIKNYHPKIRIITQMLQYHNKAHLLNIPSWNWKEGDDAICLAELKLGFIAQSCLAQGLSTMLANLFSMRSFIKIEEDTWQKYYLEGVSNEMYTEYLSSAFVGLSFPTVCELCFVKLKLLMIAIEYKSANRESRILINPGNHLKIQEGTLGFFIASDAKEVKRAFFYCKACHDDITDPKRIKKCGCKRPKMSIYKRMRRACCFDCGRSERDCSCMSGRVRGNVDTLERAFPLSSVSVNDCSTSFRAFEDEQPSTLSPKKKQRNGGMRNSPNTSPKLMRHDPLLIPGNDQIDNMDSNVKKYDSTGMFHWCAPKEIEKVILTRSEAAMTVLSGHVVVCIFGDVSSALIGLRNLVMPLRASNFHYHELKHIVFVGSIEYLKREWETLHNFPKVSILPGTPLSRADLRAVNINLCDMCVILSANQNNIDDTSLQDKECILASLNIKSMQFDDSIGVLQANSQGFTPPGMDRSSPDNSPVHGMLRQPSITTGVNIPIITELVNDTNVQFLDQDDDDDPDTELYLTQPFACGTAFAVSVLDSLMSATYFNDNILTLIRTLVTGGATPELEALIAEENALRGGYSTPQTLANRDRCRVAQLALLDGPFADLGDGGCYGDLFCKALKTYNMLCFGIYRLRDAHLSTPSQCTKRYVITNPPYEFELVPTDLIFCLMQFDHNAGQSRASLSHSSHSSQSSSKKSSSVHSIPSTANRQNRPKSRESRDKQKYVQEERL
T3 sequence (Q9NPA1 whole entry partner): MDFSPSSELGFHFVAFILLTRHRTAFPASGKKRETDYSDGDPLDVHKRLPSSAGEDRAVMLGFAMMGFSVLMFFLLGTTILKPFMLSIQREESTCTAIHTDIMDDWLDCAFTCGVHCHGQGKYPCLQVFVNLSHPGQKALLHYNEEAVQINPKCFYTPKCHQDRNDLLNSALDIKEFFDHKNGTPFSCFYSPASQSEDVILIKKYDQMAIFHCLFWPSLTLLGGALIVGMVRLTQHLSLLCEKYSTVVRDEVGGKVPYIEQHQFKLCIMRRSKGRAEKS
Procedure: as §1, §2, §3

TASK-1 = target: T4, TASK-1 (Homo sapiens, UniProt O14649); experiment: Tl+-flux selectivity panel in HEK-293 cells: TASK-1; conditions: HEK293, 10 µM test compound, relative to control bepridil, read-out: Percent Inhibition ± SEM
T4 construct: expressed in transfected cells; host or cells: HEK293
T4 sequence (O14649 whole entry, species assumed): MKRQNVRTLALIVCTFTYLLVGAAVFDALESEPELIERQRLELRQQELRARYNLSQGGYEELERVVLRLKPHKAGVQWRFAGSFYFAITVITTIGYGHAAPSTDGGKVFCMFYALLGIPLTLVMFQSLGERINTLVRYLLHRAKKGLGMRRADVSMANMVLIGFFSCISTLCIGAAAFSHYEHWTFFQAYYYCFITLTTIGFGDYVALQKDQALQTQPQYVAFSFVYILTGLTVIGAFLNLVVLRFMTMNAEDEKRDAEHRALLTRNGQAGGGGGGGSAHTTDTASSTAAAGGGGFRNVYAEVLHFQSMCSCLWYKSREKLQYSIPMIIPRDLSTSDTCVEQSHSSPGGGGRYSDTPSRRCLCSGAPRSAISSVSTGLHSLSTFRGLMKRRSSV
Procedure: as §1, §2, §3

Compound `COc1cccc(Cn2c(=O)c3c(nc(N(C)Cc4ccccc4)n3C)n(C)c2=O)c1` [Analog 32] has an inhibition at 120 s, 10 µM (hERG) of 4.6 ± 4.5%, an inhibition at 10 µM (KV2.1) of 51 ± 1.5% and an inhibition at 10 µM (Maxi-K α1/β3) of 79 ± 1.4%. The inhibition at 10 µM (TASK-1) was 17 ± 2.3%.

Compound `CN(Cc1cccc(F)c1)c1nc2c(c(=O)n(Cc3ccccc3)c(=O)n2C)n1C` [Analog 48] has an inhibition at 120 s, 10 µM (hERG) of -2.8 ± 2.4%, an inhibition at 10 µM (KV2.1) of 51 ± 1.2% and an inhibition at 10 µM (Maxi-K α1/β3) of 63 ± 1.2%. The inhibition at 10 µM (TASK-1) was 24 ± 2.3%.

`CCCCN(Cc1ccccc1)c1nc2c(c(=O)n(Cc3ccccc3)c(=O)n2C)n1C` [Analog 70] was tested, and the inhibition at 120 s, 10 µM (hERG) was 22 ± 2%, the inhibition at 10 µM (KV2.1) was 35 ± 1.3% and the inhibition at 10 µM (Maxi-K α1/β3) was 34 ± 2.9%. For the same compound, the inhibition at 10 µM (TASK-1) was 23 ± 2.9%.

For `Cn1c(N(Cc2ccccc2)CC2CC2)nc2c1c(=O)n(Cc1ccccc1)c(=O)n2C` [Analog 71], the inhibition at 120 s, 10 µM (hERG) was 23 ± 4%, the inhibition at 10 µM (KV2.1) was 33 ± 1.2% and the inhibition at 10 µM (Maxi-K α1/β3) was 17 ± 5.2%. For the same compound, the inhibition at 10 µM (TASK-1) was 4.9 ± 1.5%.
